From ChEMBL document CHEMBL4800721, “Data for DCP probe A-446” (2021) come the findings set out here.

Test [1] has as its target Glutaminase liver isoform, mitochondrial (Homo sapiens, UniProt Q9UI32). Put plainly: GLS2 Enzyme activity assay.
Test [2] addresses Glutaminase kidney isoform, mitochondrial (Homo sapiens, UniProt O94925). Put plainly: GLS Enzyme activity assay.
The target in test [3] is Muscarinic acetylcholine receptor M5 (Homo sapiens) (UniProt P08912). To be noted: Compound concentration 10.0 uM.
Test [4] deals with Sigma intracellular receptor 2 (Homo sapiens) (UniProt Q5BJF2). Conditions: Compound concentration 10.0 uM.
Test [5] deals with 5-hydroxytryptamine receptor 1A (Homo sapiens) (UniProt P08908). Conditions: Compound concentration 10.0 uM.
Test [6] concerns the target Alpha-2B adrenergic receptor (Homo sapiens) (UniProt P18089). Conditions: Compound concentration 10.0 uM.
In test [7] the target is Alpha-2C adrenergic receptor (Homo sapiens) (UniProt P18825). Conditions: Compound concentration 10.0 uM.
Test [8] addresses 5-hydroxytryptamine receptor 1B (Homo sapiens) (UniProt P28222). To be noted: Compound concentration 10.0 uM.
Test [9] concerns the target Histamine H4 receptor (Homo sapiens) (UniProt Q9H3N8). To be noted: Compound concentration 10.0 uM.
The target in test [10] is D(4) dopamine receptor (Homo sapiens) (UniProt P21917). Conditions: Compound concentration 10.0 uM.
Test [11] deals with Histamine H1 receptor (Homo sapiens) (UniProt P35367). Conditions: Compound concentration 10.0 uM.
For test [12], the target named is T1, 5-hydroxytryptamine receptor 1D (Homo sapiens, UniProt P28221). To be noted: Compound concentration 10.0 uM.
Test [13] concerns the target Muscarinic acetylcholine receptor M1 (Homo sapiens) (UniProt P11229). To be noted: Compound concentration 10.0 uM.
In the next test the test system is A549. In words: A549 CTG Assay. Format: cell-based. To be noted: Homo sapiens.
Test [14] deals with Delta-type opioid receptor (Homo sapiens) (UniProt P41143). To be noted: Compound concentration 10.0 uM.
Test [15] concerns the target 5-hydroxytryptamine receptor 2B (Homo sapiens) (UniProt P41595). To be noted: Compound concentration 10.0 uM.
Test [16] can be described thus: GPCRScan assay: inhibition of GABA/PBR. Set-up: species or system Rattus norvegicus; radioligand conc. used [nm] 0.3 – 2.0, parental cells brain tissue.
Test [17] has as its target Muscarinic acetylcholine receptor M4 (Homo sapiens) (UniProt P08173). To be noted: Compound concentration 10.0 uM.
For test [18], the target named is 5-hydroxytryptamine receptor 2A (Homo sapiens) (UniProt P28223). Conditions: Compound concentration 10.0 uM.
For test [19], the target named is Histamine H2 receptor (Homo sapiens) (UniProt P25021). To be noted: Compound concentration 10.0 uM.
The target of test [20] is Kappa-type opioid receptor (Homo sapiens) (UniProt P41145). To be noted: Compound concentration 10.0 uM.
For test [21], the target named is 5-hydroxytryptamine receptor 7 (Homo sapiens, UniProt P34969). In words: GPCRScan assay: inhibition of 5-HT7A. Set-up: radioligand conc. used [nm] 5.0 – 6.0, parental cells Stable HEK.
In test [22] the target is Sodium-dependent dopamine transporter (Homo sapiens) (UniProt Q01959). To be noted: Compound concentration 10.0 uM.
In test [23] the target is Beta-2 adrenergic receptor (Homo sapiens) (UniProt P07550). Conditions: Compound concentration 10.0 uM.
For test [24], the target named is D(3) dopamine receptor (Homo sapiens) (UniProt P35462). To be noted: Compound concentration 10.0 uM.
Test [25] addresses Sigma non-opioid intracellular receptor 1 (Homo sapiens) (UniProt Q99720). To be noted: Compound concentration 10.0 uM.
Test [26] addresses 5-hydroxytryptamine receptor 3A (Homo sapiens) (UniProt P46098). Conditions: Compound concentration 10.0 uM.
For test [27], the target named is 5-hydroxytryptamine receptor 5A (Homo sapiens) (UniProt P47898). Conditions: Compound concentration 10.0 uM.
Test [28] has as its target 5-hydroxytryptamine receptor 1E (Homo sapiens) (UniProt P28566). To be noted: Compound concentration 10.0 uM.
Test [29] deals with Mu-type opioid receptor (Homo sapiens) (UniProt P35372). To be noted: Compound concentration 10.0 uM.
In test [30] the target is Muscarinic acetylcholine receptor M3 (Homo sapiens) (UniProt P20309). Conditions: Compound concentration 10.0 uM.
In test [31] the target is Beta-1 adrenergic receptor (Homo sapiens) (UniProt P08588). To be noted: Compound concentration 10.0 uM.
Test [32] addresses T1, 5-hydroxytryptamine receptor 1D. Put plainly: GPCRScan assay: inhibition of 5-HT1D. Set-up: radioligand conc. used [nm] 1.0 – 2.0, parental cells HEKT.
The target in test [33] is Alpha-2A adrenergic receptor (Homo sapiens) (UniProt P08913). To be noted: Compound concentration 10.0 uM.
Test [34] addresses 5-hydroxytryptamine receptor 6 (Homo sapiens) (UniProt P50406). To be noted: Compound concentration 10.0 uM.

Where “and” joins values, the source holds several entries; their conditions need not be identical. Identical values can stand only once. Calls of active or inactive are those of the source. The rule behind the calls is not given here.

T1 sequence (P28221 whole entry): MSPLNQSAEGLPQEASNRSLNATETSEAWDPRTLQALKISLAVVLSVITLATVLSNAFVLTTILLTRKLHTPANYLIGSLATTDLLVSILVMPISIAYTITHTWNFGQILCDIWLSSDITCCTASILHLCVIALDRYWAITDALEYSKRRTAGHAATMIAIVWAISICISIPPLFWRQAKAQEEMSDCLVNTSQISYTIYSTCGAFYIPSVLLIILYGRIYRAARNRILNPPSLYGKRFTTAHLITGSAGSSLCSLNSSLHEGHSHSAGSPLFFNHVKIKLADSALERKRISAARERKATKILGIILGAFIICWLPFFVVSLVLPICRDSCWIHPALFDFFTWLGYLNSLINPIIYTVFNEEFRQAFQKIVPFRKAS
Sequence of Glutaminase liver isoform, mitochondrial (Q9UI32 whole entry, canonical isoform): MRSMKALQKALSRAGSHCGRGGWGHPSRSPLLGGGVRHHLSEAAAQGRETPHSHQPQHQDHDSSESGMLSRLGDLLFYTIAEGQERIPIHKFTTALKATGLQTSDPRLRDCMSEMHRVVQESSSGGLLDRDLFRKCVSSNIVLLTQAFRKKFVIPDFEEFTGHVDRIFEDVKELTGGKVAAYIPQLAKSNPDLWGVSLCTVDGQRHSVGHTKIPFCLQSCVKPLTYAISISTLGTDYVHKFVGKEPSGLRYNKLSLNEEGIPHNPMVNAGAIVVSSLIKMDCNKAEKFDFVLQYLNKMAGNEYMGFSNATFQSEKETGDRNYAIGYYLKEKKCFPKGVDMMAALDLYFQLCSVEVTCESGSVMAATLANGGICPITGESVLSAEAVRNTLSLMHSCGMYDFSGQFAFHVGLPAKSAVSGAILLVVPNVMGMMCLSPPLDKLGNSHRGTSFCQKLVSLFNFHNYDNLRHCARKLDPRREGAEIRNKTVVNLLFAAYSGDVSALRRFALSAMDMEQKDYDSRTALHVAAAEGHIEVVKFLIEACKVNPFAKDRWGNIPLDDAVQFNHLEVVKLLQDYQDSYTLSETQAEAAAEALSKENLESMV
Sequence of Glutaminase kidney isoform, mitochondrial (O94925 whole entry, canonical isoform): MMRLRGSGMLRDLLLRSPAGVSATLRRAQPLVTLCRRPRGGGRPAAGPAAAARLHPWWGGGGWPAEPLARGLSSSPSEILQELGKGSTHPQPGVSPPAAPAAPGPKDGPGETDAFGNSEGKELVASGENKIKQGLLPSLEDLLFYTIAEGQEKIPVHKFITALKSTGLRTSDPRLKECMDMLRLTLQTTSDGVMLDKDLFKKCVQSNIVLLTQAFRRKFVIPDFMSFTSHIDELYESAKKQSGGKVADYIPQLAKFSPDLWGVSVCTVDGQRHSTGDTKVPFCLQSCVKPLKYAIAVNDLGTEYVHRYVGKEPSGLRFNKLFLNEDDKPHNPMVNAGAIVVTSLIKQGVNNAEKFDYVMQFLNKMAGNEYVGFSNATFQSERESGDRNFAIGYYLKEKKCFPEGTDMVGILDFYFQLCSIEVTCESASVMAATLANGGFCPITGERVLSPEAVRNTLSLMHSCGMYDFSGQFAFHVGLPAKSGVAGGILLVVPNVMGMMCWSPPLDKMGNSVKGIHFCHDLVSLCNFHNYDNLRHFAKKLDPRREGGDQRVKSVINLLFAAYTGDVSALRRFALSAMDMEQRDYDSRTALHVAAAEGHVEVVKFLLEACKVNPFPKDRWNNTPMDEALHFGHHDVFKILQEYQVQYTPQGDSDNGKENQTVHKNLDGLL
Sequence of 5-hydroxytryptamine receptor 7 (P34969 whole entry): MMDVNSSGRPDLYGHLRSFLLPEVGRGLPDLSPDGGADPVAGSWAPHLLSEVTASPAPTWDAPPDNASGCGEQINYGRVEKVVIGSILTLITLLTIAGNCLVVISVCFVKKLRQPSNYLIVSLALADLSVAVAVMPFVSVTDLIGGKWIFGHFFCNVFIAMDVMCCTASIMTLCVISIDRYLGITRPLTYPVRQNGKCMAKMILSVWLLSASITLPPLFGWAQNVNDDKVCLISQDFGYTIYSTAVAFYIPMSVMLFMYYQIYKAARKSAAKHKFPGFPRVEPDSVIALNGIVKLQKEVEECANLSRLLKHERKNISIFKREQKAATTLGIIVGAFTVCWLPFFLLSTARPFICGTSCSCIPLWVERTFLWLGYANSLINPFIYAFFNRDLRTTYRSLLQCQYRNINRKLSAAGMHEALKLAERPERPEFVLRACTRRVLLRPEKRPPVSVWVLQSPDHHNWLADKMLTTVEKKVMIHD
Sequence of D(3) dopamine receptor (Homo sapiens) (P35462 whole entry): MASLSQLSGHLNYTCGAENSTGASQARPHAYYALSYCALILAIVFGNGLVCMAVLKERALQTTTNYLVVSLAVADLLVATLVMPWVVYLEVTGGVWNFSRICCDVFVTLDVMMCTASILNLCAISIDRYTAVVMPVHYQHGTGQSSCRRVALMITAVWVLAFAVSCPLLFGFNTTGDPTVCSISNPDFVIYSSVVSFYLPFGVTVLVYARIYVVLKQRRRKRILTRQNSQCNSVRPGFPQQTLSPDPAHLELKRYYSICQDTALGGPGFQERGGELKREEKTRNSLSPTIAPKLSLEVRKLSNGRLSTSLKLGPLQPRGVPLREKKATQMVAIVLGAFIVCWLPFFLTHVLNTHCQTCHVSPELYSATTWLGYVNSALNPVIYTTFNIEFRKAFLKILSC
Sequence of Sodium-dependent dopamine transporter (Homo sapiens) (Q01959 whole entry): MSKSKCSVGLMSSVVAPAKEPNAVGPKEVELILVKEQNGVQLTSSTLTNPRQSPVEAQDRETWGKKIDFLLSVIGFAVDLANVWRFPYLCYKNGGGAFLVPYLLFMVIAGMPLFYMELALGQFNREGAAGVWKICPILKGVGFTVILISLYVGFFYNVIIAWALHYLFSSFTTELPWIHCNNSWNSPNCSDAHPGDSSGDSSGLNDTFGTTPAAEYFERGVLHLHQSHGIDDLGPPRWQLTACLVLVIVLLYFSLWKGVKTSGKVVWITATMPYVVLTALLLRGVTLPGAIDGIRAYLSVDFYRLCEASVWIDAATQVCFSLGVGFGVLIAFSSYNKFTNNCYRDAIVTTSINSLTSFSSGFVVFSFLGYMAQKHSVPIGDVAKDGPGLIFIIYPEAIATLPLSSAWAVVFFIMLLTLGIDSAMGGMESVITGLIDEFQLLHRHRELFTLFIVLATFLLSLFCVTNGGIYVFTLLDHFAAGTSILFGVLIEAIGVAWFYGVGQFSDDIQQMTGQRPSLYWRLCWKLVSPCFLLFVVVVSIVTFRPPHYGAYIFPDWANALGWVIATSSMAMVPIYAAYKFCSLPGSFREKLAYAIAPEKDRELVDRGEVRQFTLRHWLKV
Sequence of 5-hydroxytryptamine receptor 2B (Homo sapiens) (P41595 whole entry): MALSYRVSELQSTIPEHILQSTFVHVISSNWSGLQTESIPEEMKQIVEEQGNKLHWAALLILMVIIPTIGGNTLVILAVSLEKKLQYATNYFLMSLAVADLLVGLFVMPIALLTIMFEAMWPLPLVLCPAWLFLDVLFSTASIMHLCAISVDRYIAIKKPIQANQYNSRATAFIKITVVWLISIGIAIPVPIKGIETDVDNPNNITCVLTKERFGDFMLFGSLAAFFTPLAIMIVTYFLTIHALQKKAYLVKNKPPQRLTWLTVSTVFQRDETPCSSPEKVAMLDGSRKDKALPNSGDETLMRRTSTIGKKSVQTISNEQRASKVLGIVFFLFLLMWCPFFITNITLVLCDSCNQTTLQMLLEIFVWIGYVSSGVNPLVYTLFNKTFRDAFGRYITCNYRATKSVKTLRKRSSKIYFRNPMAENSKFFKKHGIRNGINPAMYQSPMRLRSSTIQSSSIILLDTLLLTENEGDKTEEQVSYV
Sequence of 5-hydroxytryptamine receptor 3A (Homo sapiens) (P46098 whole entry): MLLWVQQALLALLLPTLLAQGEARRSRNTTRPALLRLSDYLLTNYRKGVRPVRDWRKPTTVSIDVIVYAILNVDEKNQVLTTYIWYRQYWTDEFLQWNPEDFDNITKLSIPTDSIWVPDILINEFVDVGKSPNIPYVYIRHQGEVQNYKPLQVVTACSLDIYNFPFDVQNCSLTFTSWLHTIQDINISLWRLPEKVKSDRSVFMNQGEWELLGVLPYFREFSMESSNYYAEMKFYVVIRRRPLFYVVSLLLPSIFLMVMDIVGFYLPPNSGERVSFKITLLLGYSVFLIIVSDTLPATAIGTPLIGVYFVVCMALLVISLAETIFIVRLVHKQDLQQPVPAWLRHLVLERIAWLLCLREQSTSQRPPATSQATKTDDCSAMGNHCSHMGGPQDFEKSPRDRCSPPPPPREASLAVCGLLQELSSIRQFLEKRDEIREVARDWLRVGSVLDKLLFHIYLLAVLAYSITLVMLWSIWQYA
Sequence of Kappa-type opioid receptor (Homo sapiens) (P41145 whole entry): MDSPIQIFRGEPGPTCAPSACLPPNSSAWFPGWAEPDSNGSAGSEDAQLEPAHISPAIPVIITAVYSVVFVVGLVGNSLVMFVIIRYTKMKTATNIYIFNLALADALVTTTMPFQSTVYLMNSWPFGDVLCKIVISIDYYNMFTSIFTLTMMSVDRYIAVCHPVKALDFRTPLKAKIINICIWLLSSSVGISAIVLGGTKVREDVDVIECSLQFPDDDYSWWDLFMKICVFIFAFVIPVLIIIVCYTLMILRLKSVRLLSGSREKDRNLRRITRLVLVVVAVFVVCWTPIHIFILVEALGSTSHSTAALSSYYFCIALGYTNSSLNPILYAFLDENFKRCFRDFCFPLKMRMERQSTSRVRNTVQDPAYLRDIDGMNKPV
Sequence of Beta-1 adrenergic receptor (Homo sapiens) (P08588 whole entry, looked up): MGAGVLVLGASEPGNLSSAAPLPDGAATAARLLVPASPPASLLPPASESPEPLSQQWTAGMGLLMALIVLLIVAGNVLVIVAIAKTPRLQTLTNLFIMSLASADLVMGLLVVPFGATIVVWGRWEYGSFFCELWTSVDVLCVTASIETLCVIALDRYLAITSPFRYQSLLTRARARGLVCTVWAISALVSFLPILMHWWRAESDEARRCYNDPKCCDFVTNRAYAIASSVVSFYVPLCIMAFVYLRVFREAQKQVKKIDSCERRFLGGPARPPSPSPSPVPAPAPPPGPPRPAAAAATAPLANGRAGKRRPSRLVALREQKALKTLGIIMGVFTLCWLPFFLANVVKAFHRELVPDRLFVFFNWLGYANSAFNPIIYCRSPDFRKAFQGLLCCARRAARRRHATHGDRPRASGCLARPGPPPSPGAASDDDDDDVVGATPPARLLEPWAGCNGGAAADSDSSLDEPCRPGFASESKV

What is called IC50 is the concentration that inhibits the measured activity by half. Turning to `O=C(Cc1ccccc1)Nc1nnc(N2CC[C@@H]3[C@H]2CN3c2cccnn2)s1` [A-426], the IC50 in [1] and in test [2] was > 30 µM (not active) each time.
One may read the inhibition as the relative decrease from the control value, in per cent. The pKi is the negative decadic logarithm of the Ki, by convention in mol/L. As to `O=C(Cc1ccccc1)Nc1nnc(N2C[C@H]3C[C@@H]2CN3c2cccnn2)s1` [A-446], the inhibition in [3] is 15%; in test [4], 6.42%; in test [5], 1.9%; in test [6], -6.1%; in test [7] it was 13.9%; in test [8], 11.2%. The inhibition in [9] is 18.3%; in [10], -7.36%; in test [11], 21.3%; in [12], 55.1%; in [13] it was 14.6%; in test [14], -2.96%. Further, the inhibition in test [15] was 1.83%; in test [17], -9.24%; in test [18], -2.63%; in test [19], -5.22%; in test [20] it was 2.85%; in [22], 33.5%. The inhibition in [23] was -8.05%; in test [24], -3.72%; in test [25], 9.03%; in [26], 1.72%; in [27] it was 4.08%; in test [28], -1.42%. In addition, the inhibition in test [29] was -3.29%; in test [30] it was 9.66%; in test [31] it was 1.03%; in test [33], 12.2%; in [34] it was -4.23%. Also, the values for the IC50 (in the test with A549; in [1]; in test [2]) were 0.0105 µM (active), > 30 µM (not active) and 0.031 µM (active), respectively. In addition, the Ki in [16] was greater than 10 µM; in test [21], greater than 10 µM; in test [32] (read-out: Ki), > 10 µM and 6.45 µM; in test [32] (read-out: pKi (converted)), greater than 10 µM. Besides, the pKi in [16] and in [21] was less than 5 throughout.
